Source: patent publication US8338480B2, “Combination treatment of metabolic disorders” (Wellstat Therapeutics Corporation, priority 2006, dated 2012)
Where a name gives a salt, the structure may show the parent alone.

Columns and labels:
Type in all cases: in vivo
db/db mice [1] = assay: Serum glucose in db/db mice after two weeks (Example 4)
Experimental: • 8. Vehicle (1% hydroxypropylmethylcellulose) • 9. Compound BI 100 mg/kg • 10. Rosiglitazone (RSG) 3 mg/kg • 11. Compound BI 100 mg/kg+RSG 3 mg/kg • 12. Compound CF 100 mg/kg • 13. Compound CF 100 mg/kg+RSG 3 mg/kg • 14. Compound CT 100 mg/kg+RSG 3 mg/kg • 15. […]
After two weeks, blood samples were collected from the retro-orbital sinus and processed for serum chemistry measurements.

[2] = system: Gold Thioglucose-obese (GTG) mice; assay: Body weight and cumulative food intake in gold thioglucose-obese mice (Example 1); settings: for Δ BW (g) 0-5 Weeks / Body Weight (g ± SEM) Week 1 / Body Weight (g ± SEM) Week 4 / Body Weight (g ± SEM) Week 5: GTG mice; for Cumulative Food Intake / Cumulative Food Intake (grams): per cage of 5 mice
Experimental: Systemic administration of gold thioglucose (GTG) damages glucose-sensing neurons in the hypothalamus, and consequently impairs regulation of satiety, leading to chronic hyperphagia and consequent obesity. Male C57BL/6J mice, weighing 22 to 25 grams received gold thioglucose (Sigma Chemical Company, St. Louis Mo.) by intraperitoneal injection (500 mg/kg). Mice were given a high fat diet (45% Kcal fat; D12451, Research Diets, New Brunswick, N.J.) for 8 weeks to exacerbate obesity.
Mice were then divided into groups comprising 5 mice each, sorted so that each group had similar mean body weights (approximately 47 grams). Mice received single daily oral treatment with Compound BI, rosiglitazone or combinations of the two drugs. A group of lean control mice on a standard low fat rodent chow was also included.
(§1) • 1. Vehicle (1% hydroxypropylmethylcellulose) • 2. Compound BI 30 mg/kg • 3. Compound BI 100 mg/kg • 4. Rosiglitazone (RSG) 3 mg/kg • 5. RSG 3 mg/kg+Compound BI 30 mg/kg • 6. RSG 3 mg/kg+Compound BI 100 mg/kg • 7. Lean Control (no treatment)

db/db mice [3] = assay: Serum glucose in db/db mice, combinations with rosiglitazone or pioglitazone, 4 weeks (Example 5); settings: 4 weeks oral once per day
Experimental: (§2) Male db/db mice have a defect in the receptor for the appetite-regulating protein leptin and consequently develop hyperphagia, obesity, insulin resistance, hyperglycemia, hypertriglyceridemia. Male db/db mice are an accepted animal model for Type II diabetes. The effect of a range of single daily doses of orally administered Compound BI was assessed in this model, and the efficacy of rosiglitazone alone and in combination with Compound BI was also examined.
Male C57BL/Ksola db/db mice (“db/db mice”) were obtained from Harlan (Indianapolis, Ind.) and allowed to acclimate for a minimum of one week.
(§3) Body weights and blood glucose levels were measured and animals were sorted groups of 6-7 mice with equivalent mean body weights in each group. […].
• 12. Vehicle • 13. Compound BI 100 mg/kg/day • 14. Rosiglitazone 3 mg/kg • 15. Rosiglitazone 3 mg/kg+Compound BI 100 mg/kg • 16. Pioglitazone 30 mg/kg • 17. Pioglitazone 30 mg/kg+Compound BI 100 mg/kg • 18. Pioglitazone 100 mg/kg • 19. Pioglitazone 100 mg/kg+Compound BI 100 mg/kg
Drug preparation: Compound BI was suspended in a vehicle comprising 1% aqueous hydroxypropylmethylcellulose, using a tissue homogenizer to minimize particle size and maximize uniformity of the suspension. Pioglitazone and rosiglitazone were suspended in the same vehicle after pulverization of commercial tablets of each of these drugs. Drug concentrations in the dosing suspension for each treatment group were adjusted according to body weights so that a constant volume of 0.4 ml provided appropropriate drug doses in all groups.
(§4) Drug Administration: Drugs were administered orally by gavage once per day for 28 days.
Blood sampling: For serum chemistry analysis, nonfasting blood samples (200 microliters) were obtained via the retro-orbital sinus and collected in serum separator tubes at 11 AM on day 28 after initiation of drug administration.

db/db mice [4] = assay: Body weight and food consumption in db/db mice treated for 4 weeks (Example 2); settings: for Body Weight (grams) Mean ± SD 4 Weeks / Food Consumption Week 2 / Food Consumption Week 3 / Food Consumption Week 4 / Change in Body Weight (grams): db/db mice; for Change in Body Weight (grams): initial to 4 weeks
Experimental: as §2
Male C57BL/Ksola db/db mice (“db/db mice”) were obtained from Harlan (Indianapolis, Ind.) and allowed to acclimate for a minimum of one week. Animals received Purina 5008 Lab Diet and tap water ad libitum and were housed with 3-4 animals per cage. Male C57BL/6 mice of the same age were used as lean nondiabetic controls.
as §3
• 1. Lean Control (no treatment) • 2. Vehicle • 3. Compound BI 30 mg/kg/day • 4. Compound BI 100 mg/kg/day • 5. Compound BI 150 mg/kg/day • 6. Rosiglitazone 3 mg/kg • 7. Rosiglitazone 3 mg/kg+Compound BI 30 mg/kg • 8. Rosiglitazone 3 mg/kg+Compound BI 100 mg/kg • 9. Rosiglitazone 20 mg/kg • 10. Rosiglitazone 20 mg/kg+Compound BI 30 mg/kg • 11. Rosiglitazone 20 mg/kg+Compound BI 100 mg/kg
Drug preparation: Compound BI was suspended in a vehicle comprising 1% aqueous hydroxypropylmethylcellulose, using a tissue homogenizer to minimize particle size and maximize uniformity of the suspension. Rosiglitazone was suspended in the same vehicle. Drug concentrations in the dosing suspension for each treatment group were adjusted according to body weights so that a constant volume of 0.4 ml provided appropropriate drug doses in all groups.
as §4

[5] = system: Gold Thioglucose-obese mice; assay: Serum glucose, triglycerides and free fatty acids in gold thioglucose-obese mice (Example 1); settings: GTG-obese mice, after two weeks
Experimental: Systemic administration of gold thioglucose (GTG) damages glucose-sensing neurons in the hypothalamus, and consequently impairs regulation of satiety, leading to chronic hyperphagia and consequent obesity.
Mice received single daily oral treatment with Compound BI, rosiglitazone or combinations of the two drugs. A group of lean control mice on a standard low fat rodent chow was also included.
as §1
After two weeks, blood samples were collected from the retro-orbital sinus for measurement of serum glucose, triglycerides, and free fatty acids.

[6] = GTG-obese mice, 5 weeks, RSG 3 mg/kg
[7] = Compound BI 30 mg/kg oral daily
[8] = Compound BI 100 mg/kg oral daily
[9] = GTG-obese mice, 5 weeks, Compound BI 30 mg/kg
[10] = GTG-obese mice, 5 weeks, Compound BI 100 mg/kg

SMILES: CN(CCOc1ccc(CC2SC(=O)NC2=O)cc1)c1ccccn1 (stereo not drawn) [RSG, rosiglitazone maleate, reference compound]
- Glucose ± SD (db/db mice [1]; RSG 3 mg/kg alone): 258 ± 74 mg/dL
- Δ BW (g) 0-5 Weeks ([2]; RSG 3 mg/kg oral daily): -1.2 ± 0.2 g
- Body Weight (g ± SEM) Week 1 ([2]; RSG 3 mg/kg oral daily): 47.0 ± 1.0 g
- Body Weight (g ± SEM) Week 4 ([2]; RSG 3 mg/kg oral daily): 46.0 ± 1.1 g
- Body Weight (g ± SEM) Week 5 ([2]; RSG 3 mg/kg oral daily): 46.3 ± 1.0 g
- Cumulative Food Intake [2, 6]: 1293 kcal
- Cumulative Food Intake (grams) [2, 6]: 275 grams
- Serum Glucose (mg/dL) Mean ± SD (db/db mice [3]; RSG 3 mg/kg): 432 ± 138 mg/dL
- Body Weight (grams) Mean ± SD 4 Weeks (db/db mice [4]; 4 Weeks oral once per day, RSG 20 mg/kg): 51.4 ± 1.4 grams
- Body Weight (grams) Mean ± SD 4 Weeks (db/db mice [4]; 4 weeks oral once per day, RSG 3 mg/kg): 48.2 ± 2.6 grams
- Food Consumption Week 2 (db/db mice [4]; RSG 3 mg/kg): 5.3 grams/24 hr/mouse
- Food Consumption Week 2 (db/db mice [4]; RSG 20 mg/kg): 5.4 grams/24 hr/mouse
- Food Consumption Week 3 (db/db mice [4]; RSG 3 mg/kg): 4.0 grams/24 hr/mouse
- Food Consumption Week 3 (db/db mice [4]; RSG 20 mg/kg): 5.9 grams/24 hr/mouse
- Food Consumption Week 4 (db/db mice [4]; RSG 3 mg/kg): 4.8 grams/24 hr/mouse
- Food Consumption Week 4 (db/db mice [4]; RSG 20 mg/kg): 6.3 grams/24 hr/mouse
- Change in Body Weight (grams) (db/db mice [4]; RSG 3 mg/kg): +6.4 grams
- Change in Body Weight (grams) (db/db mice [4]; RSG 20 mg/kg): +10.3 grams
- Free Fatty Acids ± SEM ([5]; RSG 3 mg/kg oral daily): 813.8 ± 34.2 UMOL/L
- Glucose ± SEM ([5]; RSG 3 mg/kg oral daily): 215.8 ± 14.3 mg/dL
- Triglycerides ± SEM ([5]; RSG 3 mg/kg oral daily): 61.4 ± 4.3 mg/dL

SMILES: Cc1cccc(C)c1COc1cccc(C(=O)CCC(=O)O)c1 [Compound BI, 4-(3-(2,6-Dimethylbenzyloxy)phenyl)-4-oxobutyric acid]
- Glucose ± SD (db/db mice [1]; compound alone 100 mg/kg): 206 ± 44 mg/dL
- Δ BW (g) 0-5 Weeks [2, 7]: -9.8 ± 0.2 g
- Δ BW (g) 0-5 Weeks [2, 8]: -14.6 ± 0.3 g
- Body Weight (g ± SEM) Week 1 [2, 7]: 39.8 ± 0.9 g
- Body Weight (g ± SEM) Week 1 [2, 8]: 38.4 ± 1.1 g
- Body Weight (g ± SEM) Week 4 [2, 7]: 40.0 ± 1.1 g
- Body Weight (g ± SEM) Week 4 [2, 8]: 34.0 ± 1.0 g
- Body Weight (g ± SEM) Week 5 [2, 7]: 37.4 ± 0.9 g
- Body Weight (g ± SEM) Week 5 [2, 8]: 33.0 ± 1.1 g
- total food and calorie consumption (in words) ([2]; GTG-obese mice, 5 weeks): reduced total food and calorie consumption
- Cumulative Food Intake [2, 9]: 1048 kcal
- Cumulative Food Intake (grams) [2, 9]: 223 grams
- Cumulative Food Intake [2, 10]: 902 kcal
- Cumulative Food Intake (grams) [2, 10]: 192 grams
- body weight (in words) ([2]; GTG-obese mice, over the course of 5 weeks): decrease in body weight
- Serum Glucose (mg/dL) Mean ± SD (db/db mice [3]; Compound BI 100 mg/kg): 376 ± 151 mg/dL
- body weight and food intake (in words) (db/db mice [4]; Compound BI 30 mg/kg, RSG 3 mg/kg, alone or combined): little effect on body weight and food intake
- Body Weight (grams) Mean ± SD 4 Weeks (db/db mice [4]; 4 Weeks oral once per day, Compound BI 30 mg/kg): 50.3 ± 2.1 grams
- Body Weight (grams) Mean ± SD 4 Weeks (db/db mice [4]; 4 Weeks oral once per day, Compound BI 150 mg/kg): 47.4 ± 2.7 grams
- Body Weight (grams) Mean ± SD 4 Weeks (db/db mice [4]; 4 weeks oral once per day, Compound BI 100 mg/kg): 47.8 ± 3.6 grams
- Food Consumption Week 2 (db/db mice [4]; Compound BI 30 mg/kg): 5.3 grams/24 hr/mouse
- Food Consumption Week 2 (db/db mice [4]; Compound BI 100 mg/kg): 3.6 grams/24 hr/mouse
- Food Consumption Week 2 (db/db mice [4]; Compound BI 150 mg/kg): 3.1 grams/24 hr/mouse
- Food Consumption Week 3 (db/db mice [4]; Compound BI 30 mg/kg): 4.9 grams/24 hr/mouse
- Food Consumption Week 3 (db/db mice [4]; Compound BI 100 mg/kg): 3.7 grams/24 hr/mouse
- Food Consumption Week 3 (db/db mice [4]; Compound BI 150 mg/kg): 4.1 grams/24 hr/mouse
- Food Consumption Week 4 (db/db mice [4]; Compound BI 30 mg/kg): 5.6 grams/24 hr/mouse
- Food Consumption Week 4 (db/db mice [4]; Compound BI 100 mg/kg): 5.1 grams/24 hr/mouse
- Food Consumption Week 4 (db/db mice [4]; Compound BI 150 mg/kg): 6 grams/24 hr/mouse
- Change in Body Weight (grams) (db/db mice [4]; Compound BI 30 mg/kg): +8.4 grams
- Change in Body Weight (grams) (db/db mice [4]; Compound BI 100 mg/kg): +6.3 grams
- Change in Body Weight (grams) (db/db mice [4]; Compound BI 150 mg/kg): +6.6 grams
- blood glucose, triglycerides and free fatty acids (in words) [5]: dose-dependent decreases
- Free Fatty Acids ± SEM [5, 7]: 969.2 ± 18.2 UMOL/L
- Glucose ± SEM [5, 7]: 205.8 ± 8.1 mg/dL
- Triglycerides ± SEM [5, 7]: 62.8 ± 3.0 mg/dL
- Free Fatty Acids ± SEM [5, 8]: 936.2 ± 63.0 UMOL/L
- Glucose ± SEM [5, 8]: 160.0 ± 17.7 mg/dL
- Triglycerides ± SEM [5, 8]: 53.8 ± 7.4 mg/dL
